Assays:
[1] = test system: TAR-TAT complex formation in HL3T1 cells; assay: In vivo assay: inhibition of TAR-TAT complex formation in HL3T1 cells (HIV-1 LTR promoter, CAT reporter); type: cell-based; conditions: compounds of formula V transfected into HL3T1 cells with pSV2Tat and pAL, CAT and luciferase read after 48 hour, read-out: Kd (nM), binding constants
Method: Binding of compounds of formula I and V to TAR RNA was measured by evaluating their inhibition of TAR-TAT complex formation in the presence of increasing levels of the compound to be tested. The compounds of formula I were tested in an in vitro assay; the compounds of formula V were tested in an in vivo assay.
Cells were grown in 2 mL of Dulbecco's modified Eagle medium (DMEM) supplemented with 10% fetal calf serum in 60 mm dishes at 37° C. in 5% CO2 in a tissue culture incubator. Cells were refreshed by 2 mL DMEM before transfection. Transfection was started by dropwise addition of 250 μL 2×HeBS (Hepes-buffered saline) and then keeping at room temperature for 10 minutes. Approximately 10 μg of plasmids (pSV2Tat and pAL) and increasing amounts of the Compounds DV, DW, DX or DY were transfected in the presence of CaCl2 (final concentration 125 mM) and the cells were incubated for 4 hour at 37° C. in a tissue culture incubator. The medium was then discarded and the cells were subjected to glycerol (1.5 mL of 15%) shock for 45 seconds. Finally the cells were washed twice with PBS (5 mL) and were grown in 3 mL DMEM. The cells were harvested after 48 hour post-transfection with changing with fresh DMEM at 24 hours and lysed in reporter lysis buffer (Promega). Aliquots were used for CAT and luciferase assays. Both activities were normalized to protein concentration determined by using a modified Bradford assay (Bio-Rad).

[2] = target: TAR RNA; conditions: TAT binding to TAR RNA, Dingwall et al. (1990); cited from earlier work

Compound | Kd [1] [nM] | Kd [2] [nM]
N=C(N)NCCC[C@@H](CNC(=O)N[C@@H](CCCCN)CNC(=O)N[C@H](CN)CCCNC(=N)N)NC(N)=O [Compound DV, 1-{5-Amino-1-[3-(1-aminomethyl-4-guanidino-butyl)-ureidomethyl]-pentyl}-3-(5-guanidino-2-ureido-pentyl)-urea] | 500 | 
N=C(N)NCCC[C@@H](CNC(=O)N[C@@H](CCCCN)CNC(=O)N[C@H](CN)CCCCN)NC(N)=O [Compound DW, 1-{5-Amino-1-[3-(5-amino-1-aminomethyl-pentyl)-ureidomethyl]-pentyl}-3-(5-guanidino-2-ureido-pentyl)-urea] | 50 | 
N=C(N)NCCC[C@@H](CNC(=O)N[C@@H](CCCCN)CNC(=O)NCCN)NC(N)=O [Compound DY] | 150 | 
TAT: virally encoded HIV trans-acting regulatory protein that specifically recognizes TAR RNA |  | 12

— patent US6583309B1 (University of Medicine and Dentistry of New Jersey, priority 1999, dated 2003)
